This note sets out measurements from US8481527B2, “Benzamide derivatives as bradykinin antagonists” (Richter Gedeon Nyrt., priority 2006, dated 2013).

Test [1] has as its target T1, human recombinant bradykinin B1 receptor (Homo sapiens, UniProt P46663).
T1 construct: purchased Euroscreen ES-091; host or cells: CHO cells
T1 sequence (P46663 1-353): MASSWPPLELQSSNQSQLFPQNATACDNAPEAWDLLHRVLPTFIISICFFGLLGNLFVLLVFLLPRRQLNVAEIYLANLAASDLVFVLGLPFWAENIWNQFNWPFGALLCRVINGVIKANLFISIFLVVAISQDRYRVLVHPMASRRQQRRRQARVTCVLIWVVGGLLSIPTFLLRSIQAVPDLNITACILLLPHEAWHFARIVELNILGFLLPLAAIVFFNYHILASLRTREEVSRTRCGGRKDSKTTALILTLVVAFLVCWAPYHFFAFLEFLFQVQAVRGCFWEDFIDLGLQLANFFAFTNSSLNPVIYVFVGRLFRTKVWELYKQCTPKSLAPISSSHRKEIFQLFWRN
Description: Human recombinant bradykinin B1 receptor binding. The procedure: Receptor Binding Assays 1. Human Recombinant Bradykinin B1 Receptor Binding
Binding assays were carried out on human recombinant bradykinin) receptors (expressed in CHO cells) according to the Euroscreen Technical Data Sheet (Cat.No.:ES-091). 20 μg protein/tube was incubated with [3,4-prolyl-3,4-^3H(N)]-[Des-Arg^10] Kallidin as radioligand. Non specific binding was determined in the presence of 10 μM Lys-des-Arg^9-Bradykinin. The final incubation volume was 250 μl. Samples were incubated for 15 min. at 25° C. then were rapidly vacuum filtered through GF/B filters presoaked for at least 1 h in 0.5% PEI. Radioactivity was determined by liquid scintillation spectroscopy.

The target in test [2] is T2, recombinant human B1 receptors (Homo sapiens, UniProt P46663).
T2 construct: host or cells: CHO (CHO-B1)
T2 sequence (P46663 1-353): T1 sequence (P46663 1-353)
Description: Functional assay: antagonist potency by cytosolic calcium measurement in CHO-B1 cells (agonist LysDABK). The class given is cell-based. The procedure: Assessment of Antagonist Potency at B1 and B2 Receptors In Vitro by Measurement of Cytosolic Calcium Ion Concentration with a Plate Reader Fluorimeter in Cells Expressing Recombinant Human B1 or B2 Receptors
Chinese hamster ovary (CHO) cells stably expressing recombinant human B1 (CHO-B1, Euroscreen) or B2 (CHO-B2, Perkin-Elmer) receptors were cultured in Dulbecco's Modified Eagle's Medium (DMEM) containing 10% Fetal Calf Serum (FCS), 100 U/ml penicillin, 0.1 mg/ml streptomycin, 0.25 μg/ml amphotericin B, 1% Minimum Essential Medium Eagle (MEM), non essential amino acid solution, 600 μg/ml G418, 1% pyruvate (for the B2 cell line). Cells were kept at 37° C. in a humidified incubator in an atmosphere of 5% CO2/95% air and were passaged 1:4 three times a week. Cells were plated at 1.5-2.5×10^4 cell/well on standard 96-well microplates, measurements of cytosolic calcium ion concentration ([Ca^2+]i) were carried out 1-2 days after cell plating.
Measurements of [Ca^2+]i were carried out on CHO-B1 and CHO-B2 cells stably expressing human B1 and B2 receptors, respectively. Cells were grown in standard 96-well microplates and before the measurement were loaded with a fluorescent Ca^2+-sensitive dye, fluo-4/AM (2 μM): after removing the culture medium the dye was added to the cells (dissolved in assay buffer: 145 mM NaCl, 5 mM KCl, 2 mM MgCl2, 2 mM CaCl2, 10 mM HEPES, 20 mM D-glucose, 2 mM probenecid, 100 μl/well) and cells were incubated at 37° C. in a humidified incubator in an atmosphere of 5% CO2/95% air for 40-120 min. To stop dye loading cells were washed twice with assay buffer. After washing, various concentrations of the test compounds (diluted in extracellular medium from a DMSO stock solution, final DMSO concentration was <0.1%) or buffer were added to each well depending on the experimental setup. After incubation at 37° C. for 20-25 min. baseline and agonist-evoked changes of [Ca^2+]i were measured column by column with a plate reader fluorimeter (Fluoroskan Ascent, Labsystems). Excitation and detection of emission was carried out from the bottom of the plate. Filters used for Fluo-4: excitation filter—485 nm, emission filter—538 nm. The whole measurement process was performed at 37° C. and was controlled by custom software. Inhibitory potency of the test compounds was assessed by measuring the reduction in the agonist-evoked [Ca^2+]i-elevation in the presence of different concentrations of the compounds. The agonists were LysDABK for CHO-B1, and bradykinin for CHO-B2 cells. Agonists were applied at an EC80 concentration, the EC80-values were derived from daily determined dose-response curves. Fluorescence data were expressed as ΔF/F (fluorescence change normalized to baseline). All treatments on a single plate were measured in multiple wells. Data from all wells with the same treatment were averaged and the average values were used for analysis. Inhibitory potency of a compound at a single concentration point was expressed as percent inhibition of the control agonist response. Sigmoidal concentration-inhibition curves were fitted to the data (derived from at least three independent experiments) and IC50-values were determined as the concentration that produces half of the maximal inhibition caused by the compound.

Setting [3] is: CHO cell membranes, [3H]-[Des-Arg10] Kallidin radioligand, read-out: B1 binding.
Setting [4] is: CHO-B1 cells, LysDABK at EC80, fluo-4 [Ca2+]i, read-out: B1 func.
Where [5] appears, read: reference compounds, binding test, read-out: Ki.
The mark [6] stands for this setting: reference compounds, functional test, read-out: IC50.

Where a name gives a salt, the structure may show the parent alone. Read-outs that look alike come from different tables or passages of the source. Bounds are passed on as bounds.

With `O=C(NCC(=O)N1CCC(O)CC1)c1ccc(S(=O)(=O)Nc2ccccc2C(=O)c2ccccc2)cc1` [Example 3.16, 4-(2-Benzoyl-phenylsulfamoyl)-N-[2-(4-hydroxy-piperidin-1-yl)-2-oxo-ethyl]-benzamide], the Ki in test [1] (setting [3]) was less than 20 nM. Also, the IC50 in test [2] (setting [4]) was less than 20 nM.
In the case of `NC(=O)C1CCN(C(=O)CNC(=O)c2ccc(S(=O)(=O)Nc3ccccc3C(=O)c3ccccc3)cc2)CC1` [Example 3.17, 1-{2-[4-(2-Benzoyl-phenylsulfamoyl)-benzoylamino]-acetyl}-piperidine-4-carboxylic acid amide], the Ki in test [1] (setting [3]) was less than 20 nM. In addition, the IC50 in test [2] (setting [4]) is less than 20 nM.
Regarding `O=C(NCC(=O)N1CCCNCC1)c1ccc(S(=O)(=O)Nc2ccccc2Oc2ccccc2)cc1` [Example 11.1, N-(2-[1,4]-Diazepan-1-yl-2-oxo-ethyl)-4-(2-phenoxy-phenylsulfamoyl)-benzamide hydrochloride], in test [1] (setting [3]), the Ki was in the range of 20 to 100 nM. For the same compound, in test [2] (setting [4]), the IC50 is less than 20 nM.
Taken in the same sequence, the figures for `O=C(NCC(=O)N1CCNCC1)c1ccc(S(=O)(=O)Nc2ccccc2Oc2ccccc2)cc1` [Example 11.2, N-(2-Oxo-2-piperazin-1-yl-ethyl)-4-(2-phenoxy-phenylsulfamoyl)-benzamide hyrochloride] were 20 to 100 nM and less than 20 nM.
Taken in the same sequence, the figures for `NC1CCN(C(=O)CNC(=O)c2ccc(S(=O)(=O)Nc3ccccc3Oc3ccccc3)cc2)CC1` [Example 11.3, N-[2-(4-Amino-piperidin-1-yl)-2-oxo-ethyl]-4-(2-phenoxy-phenylsulfamoyl)-benzamide hydrochloride] were less than 20 nM and less than 20 nM.
Taken in the same sequence, the figures for `O=C(NCC(=O)N1CCNCC1)c1ccc(S(=O)(=O)Nc2ccccc2Oc2ccc(Cl)cc2Cl)cc1` [Example 11.4, 4-[2-(2,4-Dichloro-phenoxy)-phenylsulfamoyl]-N-(2-oxo-2-piperazin-1-yl-ethyl)-benzamide hydrochloride] were less than 20 nM and less than 20 nM.
Regarding `O=C(NCC(=O)N1CCCNCC1)c1ccc(S(=O)(=O)Nc2ccccc2Oc2ccc(Cl)cc2Cl)cc1` [Example 11.5, N-(2-[1,4]Diazepan-1-yl-2-oxo-ethyl)-4-[2-(2,4-dichloro-phenoxy)-phenylsulfamoyl]-benzamide hydrochloride], in test [1] (setting [3]), the Ki is less than 20 nM. For the same compound, the IC50 in test [2] (setting [4]) is less than 20 nM.
For the compound `O=C(NCC(=O)N1CCCNCC1)c1ccc(S(=O)(=O)Nc2ccccc2C(=O)c2ccccc2)cc1` [Example 11.6, 4-(2-Benzoyl-phenylsulfamoyl)-N-(2-[1,4]diazepan-1-yl-2-oxo-ethyl)-benzamide hydrochloride], the Ki in test [1] (setting [3]) was less than 20 nM. The IC50 in test [2] (setting [4]) was less than 20 nM.
Take `O=C(NCC(=O)N1CCNCC1)c1ccc(S(=O)(=O)Nc2ccccc2C(=O)c2ccccc2)cc1` [Example 11.7, 4-(2-Benzoyl-phenylsulfamoyl)-N-(2-oxo-2-piperazin-1-yl-ethyl)-benzamide hydrochloride]: the Ki in test [1] (setting [3]) was less than 20 nM. The IC50 in test [2] (setting [4]) is less than 20 nM.
Consider `CN1CCN(C(=O)C2CCN(S(=O)(=O)c3ccc(NCC(c4ccccc4)c4ccccc4)c(C(=O)N4CCOCC4)c3)CC2)CC1` [NVP-SAA164, 4-{2-[(2,2-diphenyl-ethyl)-amino]-5-{-4-[4-[(4-methyl-1-piperazinyl)-carbonyl]-1-piperidinyl]-sulfonyl}-benzoyl}-morfoline, reference compound], for which, in test [1] (setting [5]), the Ki was 8 nM. Further, the IC50 in test [2] (setting [6]) amounted to 33 nM.
`CCCN1C(=O)[C@H](NC(=O)Nc2ccc(N3CCC(N4CCCCC4)CC3)cc2)N=C(c2ccc(C)cc2)c2ccccc21` [compound 3, N-[4-(,4′-bipiperidin)-1′-ylphenyl]-N′-[(3R)-2,3-dihydro-5-(4-methyl-phenyl)-2-oxo-1-propyl-1H-1,4-benzodiazepin-3-yl]-urea, reference compound]: in test [1] (setting [5]), the Ki was determined as 13.4 nM. In addition, the IC50 in test [2] (setting [6]) was 64.5 nM.
